Earlier results, collected in patent US20020058290A1, “Cell lines and cell-based assays for identification of androgen receptor modulators” (priority 2000, published 2002).

Tested on: MAP kinases Erk-1 and Erk-2
Settings: AR-transfected PC3 cells; AR dependent, similar to DHT

| SMILES | activation of MAP kinases Erk-1 and Erk-2 |
| --- | --- |
| CC(O)(CS(=O)(=O)c1ccc(F)cc1)C(=O)Nc1ccc(C#N)c(C(F)(F)F)c1 (centres unmarked) [Casodex] | activate MAP kinases Erk-1 and Erk-2 in an AR dependent fashion |
| CC(C)(O)C(=O)Nc1ccc([N+](=O)[O-])c(C(F)(F)F)c1 [Hydroxyflutamide] | activate MAP kinases Erk-1 and Erk-2 in an AR dependent fashion |
